What is called EC50 is the concentration at which the effect is half-maximal. By IC50 is commonly meant the concentration needed to halve the response being measured.

The results in this text go back to patent publication US10030016B2 (Sunesis Pharmaceuticals, Inc., priority 2009, dated 2018).

Molecules are shown by their SMILES. Structures can show the parent of a compound that is named as a salt. Where two headings read alike, the source gives them in different places. Where only a bound is given, the exact number is not on record here.

Test [1] concerns phospho-akt (Thr308) in PC-3 cells. The experiment in a line: Inhibition of phospho-akt (Thr308) in PC-3 cells, MSD phospho-akt 308 ELISA kit. The test is classed as cell-based. The following applies: 2 hours, no serum, read-out: EC50. A digest of the protocol:
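PC-3 cells (15,000/well, overnight in 10% FBS medium) treated 2 h with three-fold diluted compounds in serum-free medium; DMSO high and 5 μM wortmannin low controls. Lysates captured on BSA-blocked MSD plates overnight at 4 °C, then 1 h antibody detection at RT; phospho-Akt Thr308 read by MSD electrochemiluminescence.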
For orientation: An ELISA detects its analyte on a solid surface through an enzyme-linked reagent.

The target of test [2] is PDK1 (Homo sapiens (Human), UniProt O15530). The experiment in a line: PDK1 kinase assay (coupled PDK1/AKT/FAM-crosstide assay, IMAP fluorescence polarization). The test is classed as biochemical. The method in brief: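 PDK1 activity is measured indirectly through activation of a PIFtide-fused AKT2 construct that phosphorylates FAM-crosstide (100 nM). The reaction uses 0.75 nM PDK1, 40 μM ATP, 30 min, 25° C, with IMAP polarization detection.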
Sequence of PDK1 (O15530 51-359): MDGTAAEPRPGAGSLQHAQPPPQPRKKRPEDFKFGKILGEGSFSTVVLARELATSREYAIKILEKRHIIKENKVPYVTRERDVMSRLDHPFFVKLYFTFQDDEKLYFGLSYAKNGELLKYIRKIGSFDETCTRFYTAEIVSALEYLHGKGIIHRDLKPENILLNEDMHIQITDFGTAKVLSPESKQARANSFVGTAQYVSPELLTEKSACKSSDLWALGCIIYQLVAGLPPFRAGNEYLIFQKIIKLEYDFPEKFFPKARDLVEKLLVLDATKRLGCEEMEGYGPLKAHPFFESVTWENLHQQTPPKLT
(In general: Fluorescence polarisation rises when a labelled molecule tumbles more slowly, as on binding a larger partner.)

[3] abbreviates: Homo sapiens, inhibition of P308 Akt in PC-3 cells using MSD.
Setting [4] is: Homo sapiens, inhibition of P308 Akt in PC-3 cells, MSD.
The mark [5] stands for this setting: inhibition of phospo-PDK1 in vitro.

Turning to `Nc1ncc(-c2ccc(CNc3ncc(C(F)(F)F)cc3C(=O)Nc3ccc(F)cc3)cc2)nc1N1CCNCC1` [Example 193, 2-[4-(3′-Amino-3,4,5,6-tetrahydro-2H-[1,2′]bipyrazinyl-6′-yl)-benzylamino]-N-(4-fluoro-phenyl)-5-trifluoromethyl-nicotinamide], the EC50 in test [1] (setting [3]) was 1000 to 10000 nM. Also, the IC50 in test [2] (inhibition of PDK1 in vitro) was < 100 nM.
As to `Nc1ncnc2ccc(-c3ccc(CNc4nccc(C(F)(F)F)c4C(=O)NCc4ccc(F)c(F)c4)s3)cc12` [Example 8.12.4, 2-({[5-(4-aminoquinazolin-6-yl)thiophen-2-yl]methyl}amino)-N-(3,4-difluorobenzyl)-4-(trifluoromethyl)pyridine-3-carboxamide], the half-maximal effective concentration (EC50) in test [1] (setting [4]) was 1000 to 10000 nM. Further, the concentration for half-maximal inhibition (IC50) in test [2] (setting [5]) was > 5000 nM.
For `C[C@H](NC(=O)c1cc(C#N)cnc1NCc1ccc(-c2cnc(N)c(OCCN)n2)cc1)c1ccc(F)cc1` [Example 165, 2-{4-[5-Amino-6-(2-amino-ethoxy)-pyrazin-2-yl]-benzylamino}-5-cyano-N-[(S)-1-(4-fluoro-phenyl)-ethyl]-nicotinamide], the half-maximal effective concentration (EC50) in test [1] (setting [3]) was < 1000 nM. Moreover, the IC50 in test [2] (inhibition of PDK1 in vitro) was < 100 nM.
Taken in the same sequence, the figures for `C[C@H](NC(=O)c1cc(C(F)(F)F)cnc1NCc1ccc(-c2cnc3[nH]ncc3c2)cc1)c1ccc(F)cc1` [Example 246, N-[(S)-1-(4-Fluoro-phenyl)-ethyl]-2-[4-(1H-pyrazolo[3,4-b]pyridin-5-yl)-benzylamino]-5-trifluoromethyl-nicotinamide] were < 1000 nM and < 100 nM.
Consider `C[C@H](NC(=O)c1cc(S(=O)(=O)N(C)C)cnc1NCc1ccc(-c2ccc3ncnc(N)c3c2)s1)c1ccc(F)c(F)c1` [Example 8.7.6, 2-({[5-(4-aminoquinazolin-6-yl)thiophen-2-yl]methyl}amino)-N-[(1S)-1-(3,4-difluorophenyl)ethyl]-5-(dimethylsulfamoyl) pyridine-3-carboxamide], for which, in test [1] (inhibition of P308 Akt in PC-3 cells, MSD), the EC50 was < 1000 nM. Besides, the IC50 in test [2] (setting [5]) is < 100 nM.
With `Nc1ncnc2ccc(-c3ccc(CNc4ncccc4C(=O)NCc4cccc(F)c4)s3)cc12` [Example 3.9, 2-({[5-(4-aminoquinazolin-6-yl)thiophen-2-yl]methyl}amino)-N-(3-fluorobenzyl)pyridine-3-carboxamide (TFA salt)], the EC50 in test [1] (setting [4]) is < 1000 nM. Moreover, in test [2] (setting [5]), the 50% inhibitory concentration (IC50) is < 100 nM.
Regarding `Cc1cc(CNc2ncc(C#N)cc2C(=O)N[C@@H](C)c2ccc(F)cc2)ccc1-c1cnc2[nH]nc(N)c2c1` [Example 408, 2-[4-(3-Amino-1H-pyrazolo [3,4-b]pyridin-5-yl)-3-methyl-benzylamino]-5-cyano-N-[(S)-1-(4-fluoro-phenyl)-ethyl]-nicotinamide], the EC50 in test [1] (setting [3]) is 1000 to 10000 nM. The half-inhibitory concentration (IC50) in test [2] (inhibition of PDK1 in vitro) is < 100 nM.
On the same counts, the results for `CCCc1n[nH]c2ncc(-c3ccc(CNc4ncc(C#N)cc4C(=O)N[C@@H](C)c4ccc(F)cc4)cc3)cc12` [Example 147, (S)-5-cyano-N-(1-(4-fluorophenyl)ethyl)-2-(4-(3-propyl-1H-pyrazolo[3,4-b]pyridin-5-yl)benzyl-amino)nicotinamide] are 1000 to 10000 nM and < 100 nM.
Taken in the same sequence, the figures for `Cn1cnc2cnc3ccc(-c4ccc(CNc5ncccc5C(=O)NCc5cncc(F)c5)s4)cc3c21` [Example 354, N-((5-fluoropyridin-3-yl)methyl)-2-((5-(1-methyl-1H-imidazo[4,5-c]quinolin-8-yl)thiophen-2-ylmethyl)amino)nicotinamide] were < 1000 nM and < 100 nM.
Regarding `Nc1n[nH]c2ncc(-c3ccc(CNc4nccc5ncn(Cc6ccc(F)c(F)c6)c(=O)c45)cc3)cc12` [Example 40, 5-(4-(3-amino-1H-pyrazolo[3,4-b]pyridin-5-yl)benzylamino)-3-(3,4-difluorobenzyl)pyrido[4,3-d]pyrimidin-4(3H)-one], the EC50 in test [1] (setting [4]) was < 1000 nM. For the same compound, the IC50 in test [2] (setting [5]) is < 100 nM.
Consider `CCC(=O)Nc1cnc(NCc2ccc(-c3ccc4ncnc(N)c4c3)s2)c(C(=O)NCc2ccc(F)c(F)c2)c1` [Example 8.5.2, 2-({[5-(4-aminoquinazolin-6-yl)thiophen-2-yl]methyl}amino)-N-(3,4-difluorobenzyl)-5-(propanoylamino)pyridine-3-carboxamide], for which the EC50 in test [1] (setting [4]) was 1000 to 10000 nM. Also, in test [2] (setting [5]), the half-maximal inhibitory concentration (IC50) is < 100 nM.
Turning to `C[C@H](NC(=O)c1cc(C#N)cnc1N[C@H](CC(=O)O)c1ccc(-c2c[nH]c3ncnc(N)c23)cc1)c1ccc(F)cc1` [Example 45, (R)-3-(4-(4-amino-7H-pyrrolo[2,3-d]pyrimidin-5-yl)phenyl)-3-(5-cyano-3-((S)-1-(4-fluorophenyl)ethylcarbamoyl)pyridin-2-ylamino)propanoic acid], the 50% effective concentration (EC50) in test [1] (Homo sapiens, PC-3, 2 h, inhibition of P308 Akt in PC-3 cells using MSD) is > 10000 nM. Besides, the IC50 in test [2] (inhibition of PDK1 in vitro) fell in the range of 100 to 1000 nM.
With `C[C@H](NC(=O)c1cc(C(F)(F)F)cnc1NCc1ccc(-c2cnc3[nH]nc(N)c3c2)cc1)c1ccc(Br)cc1` [Example 282, (S)-2-(4-(3-amino-1H-pyrazolo [3,4-b]pyridin-5-yl)benzylamino)-N-(1-(4-bromophenyl)ethyl)-5-(trifluoromethyl)nicotinamide], the 50% effective concentration (EC50) in test [1] (setting [3]) was 1000 to 10000 nM. The IC50 in test [2] (inhibition of PDK1 in vitro) was < 100 nM.
As to `C[C@H](NC(=O)c1cc(C#N)cnc1NCc1ccc(-c2cnc(N)c(N3CCC[C@@H](N)C3)n2)cc1)c1ccc(F)cc1` [Example 188, 2-{4-[5-Amino-6-((R)-3-amino-piperidin-1-yl)-pyrazin-2-yl]-benzylamino}-5-cyano-N-[(S)-1-(4-fluoro-phenyl)-ethyl]-nicotinamide], the EC50 in test [1] (setting [3]) was 1000 to 10000 nM. Also, in test [2] (inhibition of PDK1 in vitro), the IC50 was < 100 nM.
In the case of `C[C@H](NC(=O)c1cccnc1NCc1ccc(-c2ccc3ncnc(N)c3c2)s1)c1ccc(F)cc1` [Example 3.15, 2-({[5-(4-aminoquinazolin-6-yl)thiophen-2-yl]methyl}amino)-N-[(1S)-1-(4-fluorophenyl)ethyl] pyridine-3-carboxamide], the EC50 in test [1] (setting [4]) was < 1000 nM. This compound yielded a half-maximal inhibitory concentration (IC50) in test [2] (setting [5]) of 100 to 1000 nM.
Taken in the same sequence, the figures for `Cn1cnc2cnc(-c3ccc(CNc4nc5c(cc4C(=O)NCc4ccc(F)c(F)c4)CCC5)s3)cc21` [Example 8.15.2, N-(3,4-difluorobenzyl)-2-({[5-(1-methyl-1H-imidazo[4,5-c]pyridin-6-yl)thiophen-2-yl]methyl}amino)-6,7-dihydro-5H-cyclopenta[b] pyridine-3-carboxamide] were > 10000 nM and > 5000 nM.
As for `O=C(NCc1ccc(F)c(F)c1)c1cccnc1NCc1ccc(-c2ccc3ncnc(N4CCOCC4)c3c2)s1` [Example 4.11, N-(3,4-difluorobenzyl)-2-(((5-(4-morpholinoquinazolin-6-yl)thiophen-2-yl)methyl)amino)nicotinamide], in test [1] (setting [4]), the concentration giving a half-maximal response (EC50) is > 10000 nM. In addition, the IC50 in test [2] (setting [5]) was < 100 nM.
In the case of `C[C@H](NC(=O)c1cc(C#N)cnc1NCc1ccc(-c2cnc(N)cn2)cc1)c1ccc(F)cc1` [Example 120, (S)-2-(4-(5-amino-pyrazin-2-yl)benzylamino)-5-cyano-N-(1-(4-fluorophenyl)ethyl) nicotinamide], the EC50 in test [1] (setting [3]) was < 1000 nM. The half-inhibitory concentration (IC50) in test [2] (inhibition of PDK1 in vitro) was < 100 nM.
Taken in the same sequence, the figures for `COCCCNc1cnc(-c2ccc(CNc3ncc(C#N)cc3C(=O)N[C@@H](C)c3ccc(F)cc3)cc2)cn1` [Example 228, 5-Cyano-N-[(S)-1-(4-fluoro-phenyl)-ethyl]-2-{4-[5-(3-methoxy-propylamino)-pyrazin-2-yl]-benzylamino}-nicotinamide] were > 10000 nM and 1000 to 5000 nM.
`C=C1c2ccnc(NCc3ccc(-c4ccc5ncnc(N)c5c4)s3)c2C(=O)N1Cc1ccc(F)c(F)c1` [Ex. 7.20]: the EC50 in test [1] (setting [4]) fell in the range of 1000 to 10000 nM. The IC50 in test [2] (setting [5]) fell in the range of 100 to 1000 nM.
For `C[C@H](NC(=O)c1cc(C#N)cnc1NCc1ccc(-c2ccc(C#N)nc2)cc1)c1ccc(F)cc1` [Example 111, (S)-5-cyano-2-(4-(6-cyanopyridin-3-yl)benzylamino)-N-(1-(4-fluorophenyl)ethyl)nicotinamide], the EC50 in test [1] (setting [3]) is > 10000 nM. Further, in test [2] (inhibition of PDK1 in vitro), the IC50 is > 5000 nM.
Take `C[C@H](NC(=O)c1cccnc1NCc1ccc(-c2ccc3ncnc(N)c3c2)s1)c1cc(F)c(F)c(F)c1` [Example 3.63, (S)-2-(((5-(4-aminoquinazolin-6-yl)thiophen-2-yl)methyl)amino)-N-(1-(3,4,5-trifluorophenyl)ethyl) nicotinamide (TFA salt)]: the EC50 in test [1] (setting [4]) is < 1000 nM. The IC50 in test [2] (setting [5]) is < 100 nM.
For the compound `Nc1ncc(-c2ccc(CNc3ncc(C(F)(F)F)cc3C(=O)Nc3ccc(F)cc3)cc2)nc1N1CCC[C@H](N)C1` [Example 196], the concentration giving a half-maximal response (EC50) in test [1] (setting [3]) was < 1000 nM. Moreover, the IC50 in test [2] (inhibition of PDK1 in vitro) was < 100 nM.
Turning to `C[C@H](NC(=O)c1cc(C#N)cnc1N[C@H](CC(N)=O)c1ccc(-c2c[nH]c3ncnc(N)c23)cc1)c1ccc(F)cc1` [Example 46, 2-((R)-3-amino-1-(4-(4-amino-7H-pyrrolo[2,3-d]pyrimidin-5-yl)phenyl)-3-oxopropylamino)-5-cyano-N—((S)-1-(4-fluorophenyl)ethyl)nicotinamide], the EC50 in test [1] (setting [3]) is > 10000 nM. Further, in test [2] (inhibition of PDK1 in vitro), the IC50 is < 100 nM.
Turning to `Nc1ncnc2ccc(-c3ccc(CNc4ncccc4C(=O)Nc4ccc(F)c(F)c4)s3)cc12` [Example 3.24, 2-({[5-(4-aminoquinazolin-6-yl)thiophen-2-yl]methyl}amino)-N-(3,4-difluorophenyl)pyridine-3-carboxamide (TFA salt)], the EC50 in test [1] (setting [4]) lay within 1000 to 10000 nM. The same compound gave an IC50 in test [2] (setting [5]) of 100 to 1000 nM.
